Here are results for two compounds from doi:10.1101/580449v1 (biorxiv, 2019).

The term Kd denotes the equilibrium constant for the complex coming apart.

Test [1] addresses T1, CSTZM (wildtype sequence) (Zea mays, UniProt B4FZ94).
T1 sequence (B4FZ94 1-322): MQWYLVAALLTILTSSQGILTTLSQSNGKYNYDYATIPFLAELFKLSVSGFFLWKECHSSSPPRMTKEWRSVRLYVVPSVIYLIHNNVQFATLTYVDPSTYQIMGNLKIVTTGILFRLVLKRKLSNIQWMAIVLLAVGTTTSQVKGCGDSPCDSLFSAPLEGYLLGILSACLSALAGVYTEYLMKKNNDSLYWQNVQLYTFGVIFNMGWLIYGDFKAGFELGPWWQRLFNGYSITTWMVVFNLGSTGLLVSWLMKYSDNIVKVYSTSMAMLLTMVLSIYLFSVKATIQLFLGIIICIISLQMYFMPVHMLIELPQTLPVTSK
The test can be described thus: GFP-thermal shift titration. The class given is binding.

Another test deals with T2, hCST (Homo sapiens, UniProt P78382).
T2 sequence (P78382 1-337): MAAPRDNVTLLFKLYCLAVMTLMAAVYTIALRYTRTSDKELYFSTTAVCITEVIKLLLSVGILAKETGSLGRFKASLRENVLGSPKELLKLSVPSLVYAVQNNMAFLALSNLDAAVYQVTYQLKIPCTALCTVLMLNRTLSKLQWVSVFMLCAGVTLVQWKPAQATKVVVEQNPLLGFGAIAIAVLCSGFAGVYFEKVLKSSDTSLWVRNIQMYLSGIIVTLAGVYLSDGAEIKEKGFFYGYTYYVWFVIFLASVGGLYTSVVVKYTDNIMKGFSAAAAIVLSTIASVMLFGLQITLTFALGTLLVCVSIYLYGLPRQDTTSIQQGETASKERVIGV
The test is described as follows: GFP-thermal shift titration. The class given is binding.

With `CC(=O)N[C@H]1[C@H]([C@H](O)[C@H](O)CO)O[C@](OP(=O)(O)OC[C@H]2O[C@@H](n3ccc(N)nc3=O)[C@H](O)[C@@H]2O)(C(=O)O)C[C@@H]1O` [CMP-sialic acid], the equilibrium dissociation constant (Kd) in test [1] was determined as 3100 ± 200 µM; at hCST, 1500 ± 300 µM.
In the same order, the values of `Nc1ccn([C@@H]2O[C@H](COP(=O)(O)O)[C@@H](O)[C@H]2O)c(=O)n1` [CMP] are 40 µM and 40 µM.
